Literature values in paper PMC6376154 (International Journal for Parasitology: Drugs and Drug …, 2019).
Read-outs that look alike come from different tables or passages of the source.

Tested on: P. falciparum 3D7 asexual blood stage
Conditions: cited from earlier work
[1] = MMV Malaria Box data sheet (supplement mmc2.xls), ref MMV data sheet
[2] = MMV Malaria Box data sheet (supplement mmc2.xls), ref MMV data sheet, read-out: EC50_nM
[3] = MMV Malaria Box sheet, ref MMV data sheets
[4] = MMV Malaria Box sheet, ref MMV data sheets, read-out: EC50_nM
[5] = source StJude, ref ChEMBL_NTD, read-out: CHEMBL EC50
[6] = ChEMBL-NTD value per source (GNF, GSK, StJude), several values in a cell follow the order of the sources, read-out: CHEMBL EC50
[7] = MMV Malaria Box data sheet, ref MMV data sheets
[8] = MMV Malaria Box data sheet, ref MMV data sheets, read-out: EC50_nM
[9] = source GNF, ref ChEMBL_NTD, read-out: CHEMBL EC50
[10] = source GSK, ref ChEMBL_NTD, read-out: CHEMBL EC50
[11] = value(s) per source (GSK, GNF, StJude), separated by semicolon, ref ChEMBL-NTD, read-out: CHEMBL EC50

CCN(CC)CCn1c(=N)n(CC(O)c2ccc(Cl)c(Cl)c2)c2ccccc21 (stereo not shown) [MMV000248]
percent_inh @ 5 uM [1]: 97% | EC50 [2]: 718 nM

CCOc1ccc(Nc2c3ccccc3nc3ccccc23)cc1 [MMV000304]
percent_inh @ 5 uM [3]: 97% | EC50 [4]: 1060 nM | EC50 [5]: 5720 nM

Cc1ccc2nc(C)cc(Nc3cccc(C(F)(F)F)c3)c2c1 [MMV000326]
percent_inh @ 5 uM [3]: 98% | EC50 [4]: 1170 nM | EC50 [5]: 879 nM

CCn1c2c(c(=N)c3c1CCC3)CCCC2 [MMV000340]
EC50 [6]: 3120 nM

CC(C)(C)c1ccc2c(c1)CN(Cc1ccc(Cl)cc1)CO2 [MMV000442]
percent_inh @ 5 uM [3]: 98% | EC50 [4]: 362 nM | EC50 [5]: 255 nM

CCOc1ccc2c(c1)CN(Cc1ccc(Cl)cc1)CO2 [MMV000443]
percent_inh @ 5 uM [3]: 97% | EC50 [4]: 439 nM | EC50 [5]: 1490 nM

CCCCCn1c(=N)n(CC(O)COc2cccc(C)c2)c2ccccc21 (stereo not shown) [MMV000444]
percent_inh @ 5 uM [3]: 96% | EC50 [5]: 2650 nM

CCCCCCn1c(=N)n(CC(O)COc2cccc(C)c2)c2ccccc21 (stereo not shown) [MMV000445]
percent_inh @ 5 uM [3]: 98% | EC50 [4]: 1140 nM | EC50 [5]: 1970 nM

CN(C)CCCNc1c2ccccc2nc2ccccc12 [MMV000448]
percent_inh @ 5 uM [7]: 95% | EC50 [8]: 235 nM | EC50 [9]: 32.7 nM | EC50 [10]: 1040 nM | EC50 [5]: 531 nM

CCOc1cc2c(cc1OCC)C(c1cc(Cl)c(O)c(OCC)c1)NCC2 (stereo not shown) [MMV000481]
percent_inh @ 5 uM [3]: 96% | EC50 [4]: 1330 nM | EC50 [5]: 3010 nM

CCOc1cc2c(cc1OCC)C(c1cc(C)c(O)c(C)c1)NCC2 (stereo not shown) [MMV000483]
percent_inh @ 5 uM [3]: 97% | EC50 [4]: 683 nM | EC50 [5]: 1830 nM

CCN(CC)c1cc(C)c2cc(NC(=O)c3cccc(OC)c3)ccc2n1 [MMV000498]
percent_inh @ 5 uM [1]: 97% | EC50 [11]: 4770 nM

CCCN(CCC)CCCNC(=O)c1cc2c(-c3ccc(OC)c(OC)c3)nn(C)c2s1 [MMV000561]
percent_inh @ 5 uM [1]: 98% | EC50 [2]: 1430 nM | EC50 [11]: 4040 nM

COc1ccc(C2Sc3ccccc3N=C3C2=C(O)c2ccccc23)cc1 (stereo not shown) [MMV000563]
percent_inh @ 5 uM [7]: 96% | EC50 [8]: 845 nM | EC50 [9]: 238 nM

CCc1ccc(Nc2cc(C)c3ccc(O)cc3n2)cc1 [MMV000570]
percent_inh @ 5 uM [7]: 98% | EC50 [8]: 194 nM | EC50 [5]: 732 nM

COc1ccc(-c2cc(=O)oc3c4c(ccc23)OCN(Cc2ccc(F)cc2)C4)cc1 [MMV000604]
percent_inh @ 5 uM [3]: 96% | EC50 [4]: 735 nM | EC50 [5]: 5210 nM

COc1ccc(C(O)(CCC(C)C)C(CN2CCOCC2)c2ccc(Cl)cc2)cc1 (stereo not shown) [MMV000617]
EC50 [6]: 4610 nM

CCCCC(O)(c1ccc(Cl)cc1)C(CN1CCOCC1)c1ccc(Cl)cc1 (stereo not shown) [MMV000619]
percent_inh @ 5 uM [3]: 98% | EC50 [4]: 1380 nM | EC50 [5]: 4010 nM

CC(O)(c1ccc(Cl)cc1)C(CN1CCCCC1)c1ccccc1 (stereo not shown) [MMV000620]
percent_inh @ 5 uM [7]: 94% | EC50 [5]: 916 nM

CCCCCCC(O)(c1ccc(F)cc1)C(CN1CCOCC1)c1ccccc1 (stereo not shown) [MMV000621]
percent_inh @ 5 uM [3]: 93% | EC50 [5]: 3180 nM

CC1CCCCN1CCCNC(=O)c1ccc2c(c1)sc1nc(-c3ccc(F)cc3)cn12 (stereo not shown) [MMV000634]
percent_inh @ 5 uM [7]: 98% | EC50 [8]: 648 nM | EC50 [5]: 634 nM

COc1ccc(NC(=O)C2c3ccccc3C(=O)N(CC(C)C)C2c2cccs2)cc1Cl (stereo not shown) [MMV000642]
percent_inh @ 5 uM [7]: 100% | EC50 [8]: 20.2 nM | EC50 [9]: 91.4 nM | EC50 [5]: 119 nM

COc1ccccc1CNC(=O)C1c2ccccc2C(=O)N(CC(C)C)C1c1cccs1 (stereo not shown) [MMV000648]
percent_inh @ 5 uM [1]: 97% | EC50 [11]: 3160 nM

CCOc1ccccc1CNC(=O)C1c2ccccc2C(=O)N(CC(C)C)C1c1cccs1 (stereo not shown) [MMV000653]
percent_inh @ 5 uM [7]: 97% | EC50 [8]: 1320 nM | EC50 [5]: 1430 nM

COc1ccc(NC(=O)C2c3ccccc3C(=O)N(CC(C)C)C2c2cccs2)cc1 (stereo not shown) [MMV000662]
percent_inh @ 5 uM [7]: 100% | EC50 [8]: 36.7 nM | EC50 [5]: 102 nM

Cc1ccc(C2CC(C(F)(F)F)n3nc(C(=O)N4CCN(C(c5ccccc5)c5ccccc5)CC4)cc3N2)cc1 (stereo not shown) [MMV000699]
percent_inh @ 5 uM [3]: 98% | EC50 [4]: 454 nM | EC50 [5]: 668 nM

Cc1ccnc(NC(c2cccc(OCc3ccccc3)c2)c2ccc3cccnc3c2O)c1 (stereo not shown) [MMV000720]
percent_inh @ 5 uM [3]: 97% | EC50 [4]: 1020 nM | EC50 [10]: 864 nM | EC50 [5]: 1810 nM

Oc1c(CN2CCN(c3ccccc3F)CC2)cc(Br)c2cccnc12 [MMV000760]
percent_inh @ 5 uM [3]: 91% | EC50 [5]: 3760 nM

CCCOCc1cc(CN2CCN(c3cccc(Cl)c3)CC2)c(O)c2ncccc12 [MMV000787]
EC50 [6]: 1100 nM

CC(C)OCc1cc(CN2CCN(c3cccc(Cl)c3)CC2)c(O)c2ncccc12 [MMV000788]
percent_inh @ 5 uM [1]: 98% | EC50 [2]: 697 nM | EC50 [11]: 941 nM

OC(CNCc1ccccc1)Cn1c2ccccc2c2ccccc21 (stereo not shown) [MMV000839]
percent_inh @ 5 uM [3]: 95% | EC50 [4]: 1080 nM | EC50 [5]: 3760 nM

OC(CNC1CCCC1)Cn1c2ccccc2c2ccccc21 (stereo not shown) [MMV000848]
percent_inh @ 5 uM [1]: 97% | EC50 [2]: 660 nM | EC50 [11]: 1080 nM

Cc1ccc(NC(=O)Nc2cccc(Cl)c2)cc1F [MMV000911]
percent_inh @ 5 uM [1]: 52% | EC50 [11]: 15000 nM

COc1ccc2c(c1OC)C(=O)N1c3ccccc3N=C(c3ccc(C)cc3)CC21 (stereo not shown) [MMV000917]
percent_inh @ 5 uM [3]: 93% | EC50 [4]: 1240 nM | EC50 [5]: 2530 nM

COc1ccc(Nc2nc(NCc3ccccc3)c3ccccc3n2)cc1 [MMV000963]
EC50 [4]: 589 nM | EC50 [9]: 212 nM | EC50 [5]: 1310 nM

O=C1CC(O)(C(F)(F)C(F)(F)F)Oc2ccccc21 (stereo not shown) [MMV000972]
percent_inh @ 5 uM [3]: 95% | EC50 [5]: 2570 nM

Cc1ccc(Nc2nc(NCCO)c3ccccc3n2)cc1C [MMV001038]
EC50 [8]: 428 nM | EC50 [9]: 175 nM | EC50 [5]: 843 nM

CC(C)c1ccc(CNCC(O)c2ccccc2)cc1 (stereo not shown) [MMV001049]
percent_inh @ 5 uM [3]: 96% | EC50 [4]: 1260 nM | EC50 [5]: 1350 nM

CCOc1cccc2sc(N(Cc3cccnc3)C(=O)C3CCCCC3)nc12 [MMV001230]
percent_inh @ 5 uM [1]: 94% | EC50 [11]: 3040 nM

COc1ccc2sc(N(Cc3cccnc3)C(=O)c3ccc(C#N)cc3)nc2c1 [MMV001239]
EC50 [6]: 15000 nM

COc1ccc(C)c2sc(N(Cc3cccnc3)C(=O)c3ccc(C#N)cc3)nc12 [MMV001241]
percent_inh @ 5 uM [3]: 91% | EC50 [5]: 15000 nM

CSc1ccccc1C(=O)Nc1nc(-c2ccccn2)cs1 [MMV001246]
percent_inh @ 5 uM [7]: 98% | EC50 [8]: 206 nM | EC50 [5]: 6820 nM

CCCCc1ccc(NS(=O)(=O)c2cc3c4c(c2)CCN4C(=O)CC3)cc1 [MMV001255]
percent_inh @ 5 uM [7]: 96% | EC50 [8]: 538 nM | EC50 [5]: 15000 nM

O=C(Nc1ccc(Br)cc1)Nc1cccc(Cl)c1 [MMV001318]
percent_inh @ 5 uM [3]: 94% | EC50 [5]: 15000 nM

CC1CC(C)CN(C(=O)c2ccc(Cl)cc2Cl)C1 (stereo not shown) [MMV001344]
percent_inh @ 5 uM [1]: 95% | EC50 [2]: 756 nM | EC50 [11]: 1320 nM

CCN(CC)CCNc1ccnc2cc(Cl)ccc12 [MMV006087]
EC50 [8]: 58.1 nM | EC50 [9]: 7.16 nM

c1ccc(CNc2nc(Nc3ccccc3)nc3ccccc23)cc1 [MMV006169]
EC50 [6]: 158 nM

CN1CCN(c2ccc(Nc3c4ccccc4nc4ccccc34)cc2)CC1 [MMV006172]
percent_inh @ 5 uM [7]: 97% | EC50 [8]: 142 nM | EC50 [9]: 56.7 nM | EC50 [10]: 645 nM

O=C(NCc1ccco1)C1CCN(S(=O)(=O)c2ccc(Cl)cc2)CC1 [MMV006188]
percent_inh @ 5 uM [1]: 94% | EC50 [2]: 890 nM | EC50 [11]: 514 nM

Cc1cc(NCCN2CCCCC2)c2ccc3ccccc3c2n1 [MMV006203]
percent_inh @ 5 uM [7]: 99% | EC50 [8]: 300 nM | EC50 [9]: 44.1 nM

CCOC(=O)c1cnc2c(C)cccc2c1Nc1ccc(C(C)=O)cc1 [MMV006250]
percent_inh @ 5 uM [3]: 94% | EC50 [4]: 314 nM | EC50 [9]: 119 nM

CCc1c(C)c(=N)c2ccccc2n1C [MMV006278]
percent_inh @ 5 uM [7]: 76% | EC50 [8]: 378 nM | EC50 [9]: 701 nM

CCN(CC)CCNc1ccnc2cc3ccccc3cc12 [MMV006303]
EC50 [6]: 28.6 nM

CN(C)c1ccc(C=Cc2nc(=O)c3ccccc3o2)cc1 [MMV006309]
percent_inh @ 5 uM [7]: 96% | EC50 [8]: 51.5 nM | EC50 [10]: 44.6 nM

Cc1cc(Nc2cccc(F)c2)nc(NCc2ccccc2)n1 [MMV006319]
percent_inh @ 2 uM (2 uM, MMV Malaria Box sheet, ref MMV data sheets): 97% | EC50 [4]: 662 nM | EC50 [9]: 72.2 nM

O=C1c2ccccc2C2=Nc3ccccc3SC(c3cccc(F)c3)C12 (stereo not shown) [MMV006389]
percent_inh @ 5 uM [3]: 94% | EC50 [4]: 414 nM | EC50 [9]: 86.7 nM

COc1cc(OC)c(N(C)C(=O)c2cc3c(s2)-c2ccccc2S(=O)(=O)C3)cc1Cl [MMV006427]
percent_inh @ 5 uM [7]: 100% | EC50 [8]: 78.2 nM | EC50 [9]: 113 nM

Cc1cc(NC(=O)C2c3ccccc3C(=O)N(CC(C)C)C2c2cccs2)no1 (stereo not shown) [MMV006429]
percent_inh @ 5 uM [7]: 100% | EC50 [8]: 32.8 nM | EC50 [9]: 85.6 nM

CCOC(=O)c1ccc2nc(-c3ccccc3)cc(O)c2c1 [MMV006457]
percent_inh @ 5 uM [7]: 96% | EC50 [8]: 118 nM | EC50 [9]: 549 nM

c1ccc2c(NCCc3c[nH]c4ccccc34)c3ccccc3nc2c1 [MMV006513]
percent_inh @ 5 uM [3]: 97% | EC50 [4]: 304 nM | EC50 [9]: 86 nM

CCOc1ccc2nc(C)cc(Nc3ccc(Br)cc3)c2c1 [MMV006522]
EC50 [6]: 114 nM

CCN(CC)CCNc1ncnc2c1[nH]c1ccc(Br)cc12 [MMV006545]
EC50 [2]: 707 nM | EC50 [11]: 288 nM
